Measurements published in patent US20110152267A1, “Compositions and Methods for Treating Hyperproliferative Disorders” (Texas Tech University System, priority 2009, published 2011).

Legend:
Assay type in all cases: cell-based, human
[1] = test system: U-266 Multiple Myeloma cell line; experiment: DIMSCAN cytotoxicity, fenretinide + L-threo-sphinganines 3:1 (Example B3); conditions: 96 h
Method in brief: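 Cells plated at 2000–10,000/well, attached overnight, then exposed 96 h at 37 °C to fenretinide and L-threo-sphinganines alone or at 3:1 fenretinide:sphinganine. Viable cells read by DIMSCAN (fluorescein diacetate 8 microgram/mL, eosin Y quench) as survival fraction versus vehicle; synergy scored by Chou-Talalay combination index.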

[2] = test system: A-172 Glioblastoma multiforme cell line; experiment: DIMSCAN cytotoxicity, fenretinide + L-threo-sphinganines 3:1 (Example B4); design: key to CI (Combination Index): Chou-Talalay CI: <0.9 synergy, 0.9-1.1 additive, >1.1 antagonism; conditions: 96 h
Method in brief: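 A-172 cells attached overnight, then exposed 96 h at 37 °C/5% CO2 to fenretinide and L-threo-sphinganines alone or at 3:1 fenretinide:sphinganine, 12 wells per concentration. Viable cells quantified by DIMSCAN (fluorescein diacetate 8 microgram/mL final, eosin Y quench); survival fraction vs vehicle controls; synergy by Chou-Talalay combination index.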

[3] = test system: U-118 Glioblastoma cell line; experiment: DIMSCAN cytotoxicity, fenretinide + L-threo-sphinganines 3:1 (Example B5); design: key to CI (Combination Index): CI<0.9 synergy, 0.9-1.1 additive, >1.1 antagonistic; conditions: U-118 MG, 96 h
Method in brief: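 U-118 cells plated at 2000–10,000/well, attached overnight, then given fenretinide and L-threo-sphinganines alone or at 3:1 fenretinide:sphinganine for 96 h at 37 °C/5% CO2. Viable cells quantified by DIMSCAN (fluorescein diacetate, eosin Y quench) as survival fraction versus vehicle; synergy by Chou-Talalay combination index.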

[4] = test system: T98G Glioblastoma multiforme cell line; experiment: DIMSCAN cytotoxicity, fenretinide + L-threo-sphinganines 3:1 (Example B6); conditions: 96 h
Method in brief: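 T98G cells (2000–10,000/well) attached overnight, then exposed 96 h at 37° C. to fenretinide and L-threo-sphinganines alone or at 3:1 fenretinide:sphinganine, 12 wells per concentration. Viable cells quantified by fluorescein diacetate (8 microgram/mL)/eosin Y digital imaging microscopy as survival fraction versus vehicle; synergy by Chou-Talalay Combination Index.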

[5] = test system: SJ-GBM2 Glioblastoma multiforme cell line; experiment: DIMSCAN cytotoxicity, fenretinide + L-threo-sphinganines 3:1 (Example B7); design: key to CI (Combination Index): Chou-Talalay CI: <0.9 synergy, 0.9-1.1 additive, >1.1 antagonism; conditions: 96 h
Method in brief: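 SJ-GBM2 cells exposed 96 h at 37 °C to fenretinide and L-threo-sphinganines, alone or 3:1 fenretinide:sphinganine, 12 wells per concentration. Viable cells stained with fluorescein diacetate (8 μg/mL final) with eosin Y quench, read by digital imaging; survival fraction vs vehicle, combination index by Chou-Talalay.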

[6] = test system: HT-29 colorectal adenocarcinoma cell line; experiment: DIMSCAN cytotoxicity, fenretinide + L-threo-sphinganines 3:1 (Example B10); conditions: 96 h
Method in brief: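 HT-29 cells exposed 96 h at 37° C to fenretinide and L-threo-sphinganines alone or at 3:1 fenretinide:sphinganine, 12 wells per concentration. Viable cells quantified by DIMSCAN (fluorescein diacetate, eosin Y quench); survival fraction versus vehicle controls, combinations assessed by Chou-Talalay combination index.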

[7] = test system: A-549 lung adenocarcinoma cell line; experiment: DIMSCAN cytotoxicity, fenretinide + L-threo-sphinganines 3:1 (Example B13); conditions: 96 h
Method in brief: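 A-549 cells attached overnight, then exposed 96 h at 37 °C to fenretinide and L-threo-sphinganines alone or at 3:1 fenretinide:sphinganine. Viability via fluorescein diacetate with eosin Y quench, digital imaging microscopy; survival fraction versus vehicle wells, with Chou-Talalay combination index (CI<0.9 synergy).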

[8] = test system: PANC-1 pancreatic adenocarcinoma cell line; experiment: DIMSCAN cytotoxicity, fenretinide + L-threo-sphinganines 3:1 (Example B18)
Method in brief: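 PANC-1 cells plated overnight, then exposed 96 h at 37 °C, 5% CO2 to fenretinide and L-threo-sphinganines alone or at 3:1 fenretinide:sphinganine, 12 wells per concentration. Viable cells read by DIMSCAN (fluorescein diacetate 8 microgram/mL final, eosin Y quench) as survival fraction versus vehicle controls; synergy scored by Chou-Talalay combination index.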

[9] = 4-HPR 1.5 μM + L-threo-sphinganine 0.5 μM
[10] = 4-HPR 3 μM + L-threo-sphinganine 1 μM
[11] = 4-HPR 6 μM + L-threo-sphinganine 2 μM
[12] = 4-HPR 9 μM + L-threo-sphinganine 3 μM

For CCCCCCCCCCC[C@H](O)[C@@H](N)CO [C14], the “CI (Combination Index)” value [1, 9] was 0.9, the “Fa (fraction affected)” value [1, 9] was 0.163 and the “CI (Combination Index)” value [1, 10] was 1.1. For the same compound, the “Fa (fraction affected)” value [1, 10] was 0.315, the “CI (Combination Index)” value [1, 11] was 1.0 and the “Fa (fraction affected)” value [1, 11] was 0.687. For the same compound, the “CI (Combination Index)” value [1, 12] was 1.3, the “Fa (fraction affected)” value [1, 12] was 0.76 and the “CI (Combination Index)” value [2, 9] was 23.7. For the same compound, the “Fa (fraction affected)” value [2, 9] was 0.001, the “CI (Combination Index)” value [2, 10] was 3.8 and the “Fa (fraction affected)” value [2, 10] was 0.065. The “CI (Combination Index)” value [2, 11] was 1.0, the “Fa (fraction affected)” value [2, 11] was 0.717 and the “CI (Combination Index)” value [2, 12] was 0.5. For the same compound, the “Fa (fraction affected)” value [2, 12] was 0.958, the “CI (Combination Index)” value [3, 9] was 1.4 and the “Fa (fraction affected)” value [3, 9] was 0.318. For the same compound, the “CI (Combination Index)” value [3, 10] was 1.2, the “Fa (fraction affected)” value [3, 10] was 0.586 and the “CI (Combination Index)” value [3, 11] was 1.2. The “Fa (fraction affected)” value [3, 11] was 0.814, the “CI (Combination Index)” value [3, 12] was 0.4 and the “Fa (fraction affected)” value [3, 12] was 0.988. The “CI (Combination Index)” value [4, 9] was 1.0, the “Fa (fraction affected)” value [4, 9] was 0.544 and the “CI (Combination Index)” value [4, 10] was 1.6. The “Fa (fraction affected)” value [4, 10] was 0.602, the “CI (Combination Index)” value [4, 11] was 1.0 and the “Fa (fraction affected)” value [4, 11] was 0.839. The “CI (Combination Index)” value [4, 12] was 0.5, the “Fa (fraction affected)” value [4, 12] was 0.941 and the “CI (Combination Index)” value [5, 9] was 5.0. The “Fa (fraction affected)” value [5, 9] was 0.007, the “CI (Combination Index)” value [5, 10] was 1.2 and the “Fa (fraction affected)” value [5, 10] was 0.209. For the same compound, the “CI (Combination Index)” value [5, 11] was 1.2, the “Fa (fraction affected)” value [5, 11] was 0.598 and the “CI (Combination Index)” value [5, 12] was 1.4. For the same compound, the “Fa (fraction affected)” value [5, 12] was 0.820, the “CI (Combination Index)” value [6, 9] was 1.0 and the “Fa (fraction affected)” value [6, 9] was 0.215. The “CI (Combination Index)” value [6, 10] was 1.3, the “Fa (fraction affected)” value [6, 10] was 0.598 and the “CI (Combination Index)” value [6, 11] was 1.8. The “Fa (fraction affected)” value [6, 11] was 0.822, the “CI (Combination Index)” value [6, 12] was 1.4 and the “Fa (fraction affected)” value [6, 12] was 0.982. The “CI (Combination Index)” value [7, 9] was 1, the “Fa (fraction affected)” value [7, 9] was 0.01 and the “CI (Combination Index)” value [7, 10] was 1.0. For the same compound, the “Fa (fraction affected)” value [7, 10] was 0.02, the “CI (Combination Index)” value [7, 11] was 1.1 and the “Fa (fraction affected)” value [7, 11] was 0.072. The “CI (Combination Index)” value [7, 12] was 0.5, the “Fa (fraction affected)” value [7, 12] was 0.461 and the CI [8, 9] was 3.2. It also gave a Fa [8, 9] of 0.054, a CI [8, 10] of 2.6 and a Fa [8, 10] of 0.176. It also gave a CI [8, 11] of 2.1, a Fa [8, 11] of 0.450 and a CI [8, 12] of 0.7. It also gave a Fa [8, 12] of 0.883.
In the case of CCCCCCCCCCCCCCCC[C@H](O)[C@@H](N)CO [C19, (2S,3S)-2-amino-1,3-nonadecanediol], the “CI (Combination Index)” value [1, 9] is reported as 1.0, the “Fa (fraction affected)” value [1, 9] is reported as 0.19 and the “CI (Combination Index)” value [1, 10] is reported as 1.4. For the same compound, the “Fa (fraction affected)” value [1, 10] was 0.414, the “CI (Combination Index)” value [1, 11] was 0.9 and the “Fa (fraction affected)” value [1, 11] was 0.933. For the same compound, the “CI (Combination Index)” value [1, 12] was 0.3, the “Fa (fraction affected)” value [1, 12] was 0.999 and the “CI (Combination Index)” value [2, 9] was 84.4. The “Fa (fraction affected)” value [2, 9] was 0.086, the “CI (Combination Index)” value [2, 10] was 8.1 and the “Fa (fraction affected)” value [2, 10] was 0.578. The “CI (Combination Index)” value [2, 11] was greater than 0.1, the “Fa (fraction affected)” value [2, 11] was 0.998 and the “CI (Combination Index)” value [2, 12] was greater than 0.1. The “Fa (fraction affected)” value [2, 12] was 1.000, the “CI (Combination Index)” value [3, 9] was 1.3 and the “Fa (fraction affected)” value [3, 9] was 0.530. The “CI (Combination Index)” value [3, 10] was 0.9, the “Fa (fraction affected)” value [3, 10] was 0.882 and the “CI (Combination Index)” value [3, 11] was 0.4. The “Fa (fraction affected)” value [3, 11] was 0.991, the “CI (Combination Index)” value [3, 12] was 0.3 and the “Fa (fraction affected)” value [3, 12] was 0.998. For the same compound, the “CI (Combination Index)” value [4, 9] was 0.9, the “Fa (fraction affected)” value [4, 9] was 0.584 and the “CI (Combination Index)” value [4, 10] was 1.1. The “Fa (fraction affected)” value [4, 10] was 0.704, the “CI (Combination Index)” value [4, 11] was 0.1 and the “Fa (fraction affected)” value [4, 11] was 0.990. The “CI (Combination Index)” value [4, 12] was 0.1, the “Fa (fraction affected)” value [4, 12] was 0.995 and the “CI (Combination Index)” value [5, 9] was >>1. For the same compound, the “Fa (fraction affected)” value [5, 9] was 0.001, the “CI (Combination Index)” value [5, 10] was 0.4 and the “Fa (fraction affected)” value [5, 10] was 0.672. For the same compound, the “CI (Combination Index)” value [5, 11] was 0.7, the “Fa (fraction affected)” value [5, 11] was 0.925 and the “CI (Combination Index)” value [5, 12] was 0.8. The “Fa (fraction affected)” value [5, 12] was 0.997, the “CI (Combination Index)” value [6, 9] was 1.2 and the “Fa (fraction affected)” value [6, 9] was 0.138. The “CI (Combination Index)” value [6, 10] was 1.0, the “Fa (fraction affected)” value [6, 10] was 0.736 and the “CI (Combination Index)” value [6, 11] was 0.8. The “Fa (fraction affected)” value [6, 11] was 0.965, the “CI (Combination Index)” value [6, 12] was 0.8 and the “Fa (fraction affected)” value [6, 12] was 0.993. For the same compound, the “CI (Combination Index)” value [7, 9] was 1.6, the “Fa (fraction affected)” value [7, 9] was 0.000 and the “CI (Combination Index)” value [7, 10] was 0.6. For the same compound, the “Fa (fraction affected)” value [7, 10] was 0.007, the “CI (Combination Index)” value [7, 11] was 0.7 and the “Fa (fraction affected)” value [7, 11] was 0.159. The “CI (Combination Index)” value [7, 12] was 0.9, the “Fa (fraction affected)” value [7, 12] was 0.413 and the CI [8, 9] was 1.5. The Fa [8, 9] was 0.182, the CI [8, 10] was 1.8 and the Fa [8, 10] was 0.321. The CI [8, 11] was 1.4, the Fa [8, 11] was 0.663 and the CI [8, 12] was 0.1. The Fa [8, 12] was 0.997.
